The test concerns the target Metabotropic glutamate receptor 7 (Rattus norvegicus) (UniProt P35400). As to the kind of experiment: off-target activity at rat mGlu7, profiling panel, selectivity assay for mGlu4 lead optimization, cell-based, thallium flux, L-AP4 agonist (AID 623893). Conditions: mGlu7 cells, at 10 µM.

The source made the active and inactive calls.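 The calls were made as follows: active = fold change in agonist EC50 with compound of 2 or more, a potentiator, or 0.5 or less, a blocker; inactive = fold change strictly between 0.5 and 2.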

Metabotropic glutamate receptor 7 (Rattus norvegicus), sequence (P35400 whole entry, looked up): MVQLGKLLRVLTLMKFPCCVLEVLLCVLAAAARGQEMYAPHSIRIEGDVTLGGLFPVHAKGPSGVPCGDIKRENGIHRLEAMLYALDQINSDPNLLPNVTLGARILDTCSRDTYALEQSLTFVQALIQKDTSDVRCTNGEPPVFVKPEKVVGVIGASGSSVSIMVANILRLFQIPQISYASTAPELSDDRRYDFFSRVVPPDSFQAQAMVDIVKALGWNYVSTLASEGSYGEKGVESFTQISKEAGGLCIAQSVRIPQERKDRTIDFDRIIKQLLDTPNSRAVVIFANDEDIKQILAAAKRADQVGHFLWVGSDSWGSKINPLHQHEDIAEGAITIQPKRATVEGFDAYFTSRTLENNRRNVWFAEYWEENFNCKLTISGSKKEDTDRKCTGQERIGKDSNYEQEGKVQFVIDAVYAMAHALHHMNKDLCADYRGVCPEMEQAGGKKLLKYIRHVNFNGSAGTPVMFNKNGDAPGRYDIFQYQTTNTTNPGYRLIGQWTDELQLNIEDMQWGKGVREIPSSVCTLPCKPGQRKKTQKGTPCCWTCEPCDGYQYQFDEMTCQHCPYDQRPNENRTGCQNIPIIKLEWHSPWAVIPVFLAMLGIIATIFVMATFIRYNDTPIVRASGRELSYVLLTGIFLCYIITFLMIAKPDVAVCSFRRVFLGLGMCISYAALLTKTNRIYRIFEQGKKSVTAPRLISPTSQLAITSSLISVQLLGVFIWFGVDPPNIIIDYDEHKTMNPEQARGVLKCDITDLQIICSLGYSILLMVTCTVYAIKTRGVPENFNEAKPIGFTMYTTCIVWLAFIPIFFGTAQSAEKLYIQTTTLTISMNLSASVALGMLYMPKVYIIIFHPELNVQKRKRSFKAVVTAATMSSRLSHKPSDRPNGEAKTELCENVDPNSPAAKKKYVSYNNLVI

On to `O=C(Nc1cccc(Cl)c1)c1ccccn1`, for which the fold shift was 1.44 (inactive).

The record behind these values is PubChem BioAssay AID623893 (Vanderbilt Specialized Chemistry Center, 2012).
